Our source for the IC50 values is patent US20060116390A1, “Hepatitis c virus inhibitors” (priority 2003, published 2006).

This assay concerns HCV proteins in Rep5.1 cells (replicon cell line). Description: Inhibitory activity of HCV: cell-based ELISA in replicon cell line Rep5.1 (decrease of HCV proteins). The arrangement: species or system hepatitis C virus. The settings on record: Rep5.1 cells, 72 hours with drug. The method, boiled down: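 HCV protein loss was quantified by ELISA on methanol/acetone-fixed cells 72 h after drug addition, probing with selected HCV-positive human plasma, and IC50 was defined as 50% reduction relative to untreated wells. The cells were Rep5.1 replicon cells cultured in DMEM-10 with 500 μg/ml G418, plated at 5000 per well and dosed with serial dilutions after 4 h attachment.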
(In general: In an ELISA, binding on a coated surface is turned into a signal by an enzyme label.)

Where [1] appears, read: Hepatitis C virus, 72 h, concentration at which 50% of HCV proteins was decreased, Table 2, read-out: IC50.
[2] abbreviates: Hepatitis C virus, 72 h, decrease of HCV proteins measured by HCV antibody, Table 1, read-out: Level (IC50 values classified).
[3] abbreviates: concentration at which 50% of HCV proteins was decreased, Table 2, read-out: IC50.

Like-named read-outs stand apart in the source and are kept apart here.

As usually defined, the IC50 is the concentration that inhibits the measured activity by half. For `CC1=C(C(=O)OCCc2ccsc2F)C(CF)NC(=S)N1` (stereo not shown) [1′, 4-fluoromethyl-6-methyl-2-thioxo-1,2,3,4-tetrahydro-pyrimidine-5-carboxylic acid 2-(2-fluoro-thiophen-3-yl)-ethyl ester], the half-inhibitory concentration (IC50) is 1800 nM under setting [1] and 1000 to 10000 nM under setting [2].
Take `O=C(OCCc1ccsc1)C1=C(CF)NC(=S)NC1` [57′, 6-fluoromethyl-2-thioxo-1,2,3,4-tetrahydro-pyrimidine-5-carboxylic acid 2-thiophen-3-yl-ethyl ester]: the IC50 under setting [1] was determined as 10000 nM and the IC50 under setting [2] is 1000 to 10000 nM.
Regarding `CC1=C(C(=O)OCC=Cc2ccco2)CNC(=S)N1` [Compound 251, 6-methyl-2-thioxo-1,2,3,4-tetrahydro-pyrimidine-5-carboxylic acid 3-furan-2-allyl ester], under setting [3], the IC50 was 1600 nM.
Turning to `CC1=C(C(=O)OCc2c(C)cc(C)cc2C)CNC(=S)N1` [Compound 142, 6-methyl-2-thioxo-1,2,3,4-tetrahydro-pyrimidine-5-carboxylic acid 2,4,6-trimethyl-benzyl ester], the IC50 was 6000 nM under setting [1] and 1000 to 10000 nM under setting [2].
Take `CC1=C(C(=O)OCCc2ccc(C)cc2)CNC(=S)N1` [Compound 173, 6-methyl-2-thioxo-1,2,3,4-tetrahydro-pyrimidine-5-carboxylic acid 2-p-tolyl-ethyl ester]: the IC50 under setting [1] was < 400 nM.
In the case of `CC1=C(C(=O)OCc2ccc(C)cc2C)CNC(=S)N1` [Compound 122, 6-methyl-2-thioxo-1,2,3,4-tetrahydro-pyrimidine-5-carboxylic acid 2,4-dimethyl-benzyl ester], the IC50 was 800 nM under setting [1] and < 1000 nM under setting [2].
As to `CC1=C(C(=O)OCc2ccccc2)C(CF)NC(=S)N1` (stereo not shown) [Compound 211, 4-fluoromethyl-6-methyl-2-thioxo-1,2,3,4-tetrahydro-pyrimidine-5-carboxylic acid benzyl ester], the IC50 under setting [1] amounted to 16000 nM and the IC50 under setting [2] fell in the range of 10000 to 20000 nM.
The like results for `CC1=C(C(=O)OCCC2CCc3ccccc32)CNC(=S)N1` (stereo not shown) [Compound 126, 6-methyl-2-thioxo-1,2,3,4-tetrahydro-pyrimidine-5-carboxylic acid 2-indan-1-yl-ethyl ester] were, in that order, < 400 nM and < 1000 nM.
Consider `CC1=C(C(=O)OCCc2c(F)cccc2F)C(CF)NC(=S)N1` (stereo not shown) [75′, 4-fluoromethyl-6-methyl-2-thioxo-1,2,3,4-tetrahydro-pyrimidine-5-carboxylic acid 2-(2,6-difluoro-phenyl)-ethyl ester], for which the concentration for half-maximal inhibition (IC50) was 2600 nM under setting [1] and 1000 to 10000 nM under setting [2].
Take `CC(=O)OCC1NC(=S)NC(C)=C1C(=O)OCCc1cccc(Cl)c1` (stereo not shown) [44″, 4-acetoxymethyl-6-methyl-2-thioxo-1,2,3,4-tetrahydro-pyrimidine-5-carboxylic acid 2-(3-chloro-phenyl)-ethyl ester]: the IC50 under setting [1] amounted to 5000 nM and the IC50 under setting [2] is 1000 to 10000 nM.
Take `CC1=C(C(=O)OCc2ccc(OCc3ccccc3)cc2)CNC(=S)N1` [Compound 49, 6-methyl-2-thioxo-1,2,3,4-tetrahydro-pyrimidine-5-carboxylic acid 4-benzyloxy-benzyl ester]: the IC50 is, setting by setting: under setting [1], < 500 nM; under setting [2], < 1000 nM.
Turning to `CC1=C(C(=O)OCCC2CC2)CNC(=S)N1` [2′, 6-methyl-2-thioxo-1,2,3,4-tetrahydro-pyrimidine-5-carboxylic acid 2-cyclopropyl-ethyl ester], the IC50 is, setting by setting: under setting [1], 2400 nM; under setting [2], 1000 to 10000 nM.
For `COc1ccc(COC(=O)C2=C(C)NC(=S)NC2)c(C)c1C` [Compound 138, 6-methyl-2-thioxo-1,2,3,4-tetrahydro-pyrimidine-5-carboxylic acid 4-methoxy-2,3-dimethyl-benzyl ester], the IC50 is 20000 nM under setting [1] and 10000 to 20000 nM under setting [2].
`CC1=C(C(=O)OCc2ccc(Br)s2)CNC(=S)N1` [Compound 203, 6-methyl-2-thioxo-1,2,3,4-tetrahydro-pyrimidine-5-carboxylic acid 5-bromo-thiophen-2-ylmethyl ester]: the IC50 is < 400 nM under setting [1] and < 1000 nM under setting [2].
For `COc1ccccc1CCOC(=O)C1=C(C)NC(=S)NC1CO` (stereo not shown) [9″, 4-hydroxymethyl-6-methyl-2-thioxo-1,2,3,4-tetrahydro-pyrimidine-5-carboxylic acid 2-(2-methoxy-phenyl)-ethyl ester], in that order: 20000 nM and 10000 to 20000 nM.
The like results for `CC1=C(C(=O)OC2CCc3ccccc32)CNC(=S)N1` (stereo not shown) [Compound 123, 6-methyl-2-thioxo-1,2,3,4-tetrahydro-pyrimidine-5-carboxylic acid indan-1-yl ester] were, in that order, 8000 nM and 1000 to 10000 nM.
As to `O=C(OCCCc1cccs1)C1=CNC(=S)NC1CF` (stereo not shown) [16′, 4-fluoromethyl-2-thioxo-1,2,3,4-tetrahydro-pyrimidine-5-carboxylic acid 3-thiophen-2-yl-propyl ester], the IC50 was 2000 nM under setting [1] and 1000 to 10000 nM under setting [2].
For `CC1=C(C(=O)OCC=Cc2ccsc2)C(CF)NC(=S)N1` (stereo not shown) [Compound 269, 4-fluoromethyl-6-methyl-2-thioxo-1,2,3,4-tetrahydro-pyrimidine-5-carboxylic acid 3-thiophen-3-yl-allyl ester], the IC50 under setting [1] is 5000 nM and the IC50 under setting [2] lay within 1000 to 10000 nM.
Consider `CC1=C(C(=O)OCCc2ccsc2)CNC(=S)N1` [Compound 208, 6-methyl-2-thioxo-1,2,3,4-tetrahydro-pyrimidine-5-carboxylic acid 2-thiophen-3-yl-ethyl ester], for which the IC50 reads like this: under setting [1], < 400 nM; under setting [2], < 1000 nM.
Consider `CC1=C(C(=O)OCc2ccncc2)CNC(=S)N1` [Compound 155, 6-methyl-2-thioxo-1,2,3,4-tetrahydro-pyrimidine-5-carboxylic acid pyridin-4-ylmethyl ester], for which the IC50 was > 100000 nM under setting [1] and > 20000 nM under setting [2].
With `CCc1ccc(CCCOC(=O)C2=C(C)NC(=S)NC2CO)o1` (stereo not shown) [19″, 4-hydroxymethyl-6-methyl-2-thioxo-1,2,3,4-tetrahydro-pyrimidine-5-carboxylic acid 3-(5-ethyl-furan-2-yl)-propyl ester], the concentration for half-maximal inhibition (IC50) is 1400 nM under setting [1] and 1000 to 10000 nM under setting [2].
The like results for `CC1=C(C(=O)OCc2cccc(OCc3ccccc3)c2)CNC(=S)N1` [Compound 50, 6-methyl-2-thioxo-1,2,3,4-tetrahydro-pyrimidine-5-carboxylic acid 3-benzyloxy-benzyl ester] were, in that order, < 500 nM and < 1000 nM.
The like results for `CC1=C(C(=O)OCc2sc3sc(C)nc3c2C)CNC(=S)N1` [Compound 216, 6-methyl-2-thioxo-1,2,3,4-tetrahydro-pyrimidine-5-carboxylic acid 2,6-dimethyl-thieno[3,2-d]thiazol-5-ylmethyl ester] were, in that order, 5000 nM and 1000 to 10000 nM.
Turning to `COc1ccc(Cl)cc1CCOC(=O)C1=C(C)NC(=S)NC1CF` (stereo not shown) [84′, 4-fluoromethyl-6-methyl-2-thioxo-1,2,3,4-tetrahydro-pyrimidine-5-carboxylic acid 2-(5-chloro-2-methoxy-phenyl)-ethyl ester], the IC50 by setting is: under setting [1], 900 nM; under setting [2], < 1000 nM.
For the molecule `CC1=C(C(=O)OCCOc2ccccc2)CNC(=S)N1` [Compound 163, 6-methyl-2-thioxo-1,2,3,4-tetrahydro-pyrimidine-5-carboxylic acid 2-phenoxy-ethyl ester], the IC50 is, setting by setting: under setting [1], 2500 nM; under setting [2], 1000 to 10000 nM.
For `CCc1ccc(CCOC(=O)C2=C(C)NC(=S)NC2)s1` [Compound 266, 6-methyl-2-thioxo-1,2,3,4-tetrahydro-pyrimidine-5-carboxylic acid 2-(5-ethyl-thiophen-2-yl)-ethyl ester], in that order: 600 nM and < 1000 nM.
Regarding `CC1=C(C(=O)OCc2ccc([N+](=O)[O-])c(C)c2)CNC(=S)N1` [Compound 135, 6-methyl-2-thioxo-1,2,3,4-tetrahydro-pyrimidine-5-carboxylic acid 3-methyl-4-nitro-benzyl ester], the IC50 is 900 nM under setting [1] and < 1000 nM under setting [2].
For `O=C(OCc1ccccc1)C1=C(CCc2ccccc2)NC(=S)NC1` [Compound 19, 6-phenethyl-2-thioxo-1,2,3,4-tetrahydro-pyrimidine-5-carboxylic acid benzyl ester], the IC50 under setting [1] amounted to 1600 nM and the half-maximal inhibitory concentration (IC50) under setting [2] was < 1000 nM.
The like results for `O=C(OCCc1ccsc1)C1=CNC(=S)NC1` [Compound 261, 2-thioxo-1,2,3,4-tetrahydro-pyrimidine-5-carboxylic acid 2-thiophen-3-yl-ethyl ester] were, in that order, 800 nM and < 1000 nM.
Consider `C#CC(C)OCC#CCOC(=O)C1=C(C)NC(=S)NC1` (stereo not shown) [Compound 246, 6-methyl-2-thioxo-1,2,3,4-tetrahydro-pyrimidine-5-carboxylic acid 4-(1-methyl-prop-2-inyloxy)-but-2-inyl ester], for which the IC50 under setting [3] worked out at 68000 nM.
Turning to `CC(=O)OCC1NC(=S)NC(C)=C1C(=O)OCCc1ccsc1` (stereo not shown) [21″, 4-acetoxymethyl-6-methyl-2-thioxo-1,2,3,4-tetrahydro-pyrimidine-5-carboxylic acid 2-thiophen-3-yl-ethyl ester], the IC50 is > 100000 nM under setting [1] and > 20000 nM under setting [2].
As to `CC1=C(C(=O)OCCc2ccccc2)C(CF)NC(=S)N1` (stereo not shown) [33′, 4-fluoromethyl-6-methyl-2-thioxo-1,2,3,4-tetrahydro-pyrimidine-5-carboxylic acid phenethyl ester], the IC50 is 1000 nM under setting [1] and < 1000 nM under setting [2].
